Laboratory results: ChEMBL document CHEMBL3779785, “1,3,4-Oxadiazole derivatives as potential antitumor agents: discovery, optimization and biological activity valuation” (Medchemcomm, 2016)

Tests used:
MCF7 = experiment: Antiproliferative activity against human MCF7 cells after 24 hrs by MTT assay; conditions: MCF7, 24 h
HepG2 = experiment: Antiproliferative activity against human HepG2 cells after 24 hrs by MTT assay; conditions: HepG2, 24 h
[1] = Cytotoxicity against human macrophages assessed as cell growth inhibition; assay type: cell-based, Macrophage
HeLa [2] = experiment: Antiproliferative activity against human HeLa cells after 24 hrs by MTT assay
HeLa [3] = experiment: Induction of apoptosis in human HeLa cells assessed as late apoptotic cells at 10 uM after 24 hrs by Annexin V FITC/propidium iodide staining based flow cytometric analysis (reference value: 10.17 %); assay type: functional
HeLa [4] = experiment: Induction of apoptosis in human HeLa cells assessed as early apoptotic cells at 2 uM after 24 hrs by Annexin V FITC/propidium iodide staining based flow cytometric analysis (reference value: 8.45 %); assay type: functional
HeLa [5] = experiment: Induction of apoptosis in human HeLa cells assessed as late apoptotic cells at 2 uM after 24 hrs by Annexin V FITC/propidium iodide staining based flow cytometric analysis (reference value: 10.17 %); assay type: functional
HeLa [6] = experiment: Induction of apoptosis in human HeLa cells assessed as early apoptotic cells at 10 uM after 24 hrs by Annexin V FITC/propidium iodide staining based flow cytometric analysis (reference value: 8.45 %); assay type: functional
HeLa [7] = experiment: Induction of apoptosis in human HeLa cells assessed as early apoptotic cells at 50 uM after 24 hrs by Annexin V FITC/propidium iodide staining based flow cytometric analysis (reference value: 8.45 %); assay type: functional
HeLa [8] = experiment: Induction of apoptosis in human HeLa cells assessed as late apoptotic cells after 24 hrs by Annexin V FITC/propidium iodide staining based flow cytometric analysis; assay type: functional, cell-based
HeLa [9] = experiment: Induction of apoptosis in human HeLa cells assessed as early apoptotic cells after 24 hrs by Annexin V FITC/propidium iodide staining based flow cytometric analysis; assay type: functional, cell-based
HeLa [10] = experiment: Induction of apoptosis in human HeLa cells assessed as late apoptotic cells at 50 uM after 24 hrs by Annexin V FITC/propidium iodide staining based flow cytometric analysis (reference value: 10.17 %); assay type: functional

| SMILES | IC50 (MCF7) [µM] | IC50 (HepG2) [µM] | IC50 (HeLa [2]) [µM] | CC50 [1] [µM] | Activity (HeLa [3]) [%] | Activity (HeLa [4]) [%] | Activity (HeLa [5]) [%] | Activity (HeLa [6]) [%] | Activity (HeLa [7]) [%] | Activity (HeLa [8]) | Activity (HeLa [9]) | Activity (HeLa [10]) [%] |
| --- | --- | --- | --- | --- | --- | --- | --- | --- | --- | --- | --- | --- |
| Clc1cccc(Cc2nnc(Cn3nnc4ccccc43)o2)c1 | 292 | 401 | 230 | > 100 | – | – | – | – | – | – | – | – |
| Brc1ccc(Cc2nnc(Cn3nnc4ccccc43)o2)cc1 | 277 | 357 | 198 | > 100 | – | – | – | – | – | – | – | – |
| Clc1cccc(-c2nnc(Cn3nnc4ccccc43)o2)c1 | 390 | 440 | 327 | > 100 | – | – | – | – | – | – | – | – |
| COc1ccccc1-c1nnc(Cn2nnc3ccccc32)o1 | 331 | 452 | 216 | > 100 | – | – | – | – | – | – | – | – |
| Brc1ccc(-c2nnc(Cn3nnc4ccccc43)o2)cc1 | 387 | 438 | 305 | > 100 | – | – | – | – | – | – | – | – |
| Fc1cccc(Cc2nnc(Cn3nnc4ccccc43)o2)c1 | 357 | 368 | 237 | > 100 | – | – | – | – | – | – | – | – |
| Fc1cccc(-c2nnc(Cn3nnc4ccccc43)o2)c1 | 398 | 451 | 332 | > 100 | – | – | – | – | – | – | – | – |
| COc1ccc(-c2nnc(Cn3nnc4ccccc43)o2)cc1 | 376 | 477 | 269 | > 100 | – | – | – | – | – | – | – | – |
| COc1cccc(-c2nnc(Cn3nnc4ccccc43)o2)c1 | 370 | 476 | 243 | > 100 | – | – | – | – | – | – | – | – |
| Brc1cccc(-c2nnc(Cn3nnc4ccccc43)o2)c1 | 382 | 488 | 301 | > 100 | – | – | – | – | – | – | – | – |

More lines, in order of falling IC50 (MCF7), values ahead:

| IC50 (MCF7) [µM] | IC50 (HepG2) [µM] | IC50 (HeLa [2]) [µM] | SMILES | CC50 [1] [µM] | Activity (HeLa [3]) [%] | Activity (HeLa [4]) [%] | Activity (HeLa [5]) [%] | Activity (HeLa [6]) [%] | Activity (HeLa [7]) [%] | Activity (HeLa [8]) | Activity (HeLa [9]) | Activity (HeLa [10]) [%] |
| --- | --- | --- | --- | --- | --- | --- | --- | --- | --- | --- | --- | --- |
| 269 | 398 | 182 | Brc1cccc(Cc2nnc(Cn3nnc4ccccc43)o2)c1 | > 100 | – | – | – | – | – | – | – | – |
| 258 | 369 | 167 | c1ccc(Cc2nnc(Cn3nnc4ccccc43)o2)cc1 | > 100 | – | – | – | – | – | – | – | – |
| 253 | 367 | 157 | O=[N+]([O-])c1ccc(Cc2nnc(Cn3nnc4ccccc43)o2)cc1 | > 100 | – | – | – | – | – | – | – | – |
| 251 | 357 | 150 | COc1ccc(Cc2nnc(Cn3nnc4ccccc43)o2)cc1 | > 100 | – | – | – | – | – | – | – | – |
| 241 | 350 | 123 | COc1cccc(Cc2nnc(Cn3nnc4ccccc43)o2)c1 | > 100 | – | – | – | – | – | – | – | – |
| 15 | 334 | 11 | COc1ccccc1Cc1nnc(Cn2nnc3ccccc32)o1 | > 100 | 20.79 | 9.86 | 19.6 | 23.57 | 36.18 | Dose-dependent effect | Dose-dependent effect | 35.86 |
| 13 | 483 | 299 | O=[N+]([O-])c1ccc(-c2nnc(Cn3nnc4ccccc43)o2)cc1 | > 100 | – | – | – | – | – | – | – | – |
